According to patent publication US20110009335A1, “Anticancer Treatments” (priority 2008, published 2011):
Like-named read-outs stand apart in the source and are kept apart here. Starred links: 1 amine or outer side, 2 acyl side, 3 side chain; linkers in the order of their positions; H or OH if unused. Positions of bridges follow the written chain, without caps; N, C: chain ends. Non-standard residues stand in square brackets, D forms with d. Residues, ends and D or L forms follow the SMILES beside them. *: point of attachment. X1 = CC[C@H](C)[C@@H](N[*:1])[C@@H](O)CC(=O)O[C@H](C(=O)[C@H](C)C(=O)[*:2])C(C)C; NMeY = CN[C@@H](Cc1ccc(O)cc1)C(=O)O; dNMeL = CN[C@H](CC(C)C)C(=O)O; Pyruvoyl = CC(=O)C(=O)*

Columns and labels:
[1] = test system: NCI-H-460 human NSCLC xenograft; experiment: Aplidine with temsirolimus, NCI-H-460 xenograft in athymic nude mice (Example 5); type: in vivo; conditions: for % Inhibition G4: temsirolimus 10 mg/kg/day; for % Inhibition G3: temsirolimus 20 mg/kg/day; for antitumor activity as single agent (monotherapy): temsirolimus 10 and 20 mg/kg/day; for % Inhibition G2: aplidine 0.06 mg/kg/day
Experimental: (§1) Female athymic nude mice (Harlan Sprague Dawley, Madison, Wis.) were utilized for all experiments. Mice were implanted with a cell suspension when mice were 6-8 weeks of age. Animals were housed in ventilated rack caging with food and water ad libitum. The mice were acclimated for at least 5 days prior to tumor implantation.
The tumor model used in this study was NCI-H-460, which is a human NSCLC cell line obtained from the ATCC (Manassas, Va.). NCI-H-460 cells were grown in RPMI-1640 medium, 10% FBS, 10 mM Hepes, 1 mM sodium pyruvate, 4.5 g/l glucose, 1.5 g/l sodium bicarbonate and 2 mM L-glutamine. Cells from in vitro passage 11 were implanted SC into study mice: 5×10^6 cells/mouse in 0.2 ml 50% Matrigel/50% medium without antibiotics or serum, using a 23 G needle and 1 cc syringe.
Tumor measurements were determined as disclosed in Example 1. When tumor growth was within an average size range of 110±25 mg (mean±SD), mice were randomized into the treatment and control groups based on tumor weight by using LabCat® In Life module V 8.0 SP1 tumor tracking and measurement software.
(§2) The treatment of NCI-H-460-tumor-bearing mice was initiated on DPI (Day Post Implantation) 7. Body weights were recorded on treatment days and when tumor sizes were measured. In those days wherein the two drugs were administered the same day, the combination therapy groups were treated by co-administering the two drugs at the same time, with no attempt to sequence the treatments.
(§3) Aplidine was provided in the form of vials of lyophilized aplidine powder which was reconstituted in Cremophor EL/ethanol/water (CEW) 15/15/70 to a concentration of 0.5 mg/ml. The aplidine solution in CEW was diluted in 0.9% Saline to the dosing formulation concentrations, being the final proportion of CEW of 0.18/0.18/0.84.
Temsirolimus was provided in the form of vials containing a non-aqueous, ethanolic, sterile solution of temsirolimus, 25 mg/ml. […] Then, the solution was further diluted in 0.9% Saline to the dosing formulation concentrations.
Tumor size measurements were recorded twice weekly from the treatment initiation until the termination of the study. Tumor growth inhibition was assessed comparing the mean tumor weight between the two agents in combination (aplidine and temsirolimus) against temsirolimus mean tumor weight at the different concentrations assayed.
(§4) Mean, standard deviation and standard error of the mean were determined for tumor volume for all animal groups at all assessments. Student's t test was performed on tumor volumes at each measurement day, including at the end of the study, to determine whether there were any statistically significant differences between combination treatment groups and single monotherapy treatment groups.
(§5) The definition and criteria for the evaluation of potentiation and the degree of additivity for the combination therapy were the same as those disclose in Example 1.

[2] = test system: HepG2 human hepatoma xenograft; experiment: Aplidine with sorafenib, HepG2 xenograft in athymic nude mice (Example 6); type: in vivo; conditions: for % Inhibition G2: aplidine 0.06 mg/kg/day; for antitumor activity as single agent (monotherapy): doses tested; for % Inhibition G4: sorafenib 30 mg/kg/day; for % Inhibition G3: sorafenib 60 mg/kg/day
Experimental: as §1
The tumor model used in this study was HepG2, which is a human hepatoma cell line obtained from the ATCC (Manassas, Va.). HepG2 cells were grown in MEM medium, 10% FBS, 1.5 g/l sodium bicarbonate, 0.1 mM non-essential amino acids, 1.0 mM sodium pyruvate and 2 mM L-glutamine. Cells from in vitro passage 4-20 were implanted SC into study mice: 5×10^6 cells/mouse in 0.2 ml 50% Matrigel/50% medium without antibiotics or serum, using a 23 G needle and 1 cc syringe. Bacterial cultures were performed on aliquots of the cells prepared for implantation.
Tumor measurements were determined as disclosed in Example 1. When tumor growth was within an average size range of 130±44 mg (mean±SD), mice were randomized into the treatment and control groups based on tumor weight by using LabCat® In Life module V 8.0 SP1 tumor tracking and measurement software.
as §2, with “HepG2-tumor-bearing” for “NCI-H-460-tumor-bearing”, “19.” for “7.”
as §3
Tumor size measurements were recorded twice weekly from the treatment initiation until the termination of the study.
as §4, §5

[3] = G3: temsirolimus 20 mg/kg/day IP
[4] = G4: temsirolimus 10 mg/kg/day IP
[5] = CAKI-1 study, Example 4 (temsirolimus)
[6] = NCI-H-460 study, Example 5 (temsirolimus)
[7] = G2: aplidine 0.060 mg/kg/day IP

Compound: CO[C@H]1C[C@@H]2CC[C@@H](C)[C@@](O)(O2)C(=O)C(=O)N2CCCC[C@H]2C(=O)O[C@H]([C@H](C)C[C@@H]2CC[C@@H](OC(=O)C(C)(CO)CO)[C@H](OC)C2)CC(=O)[C@H](C)/C=C(\C)[C@@H](O)[C@@H](OC)C(=O)[C@H](C)C[C@H](C)/C=C/C=C/C=C/1C [temsirolimus]
- % T/C on day 7 [1, 3]: 98.2%
- % T/C on day 10 [1, 3]: 41.2%
- % T/C on day 13 [1, 3]: 30.5%
- % T/C on day 16 [1, 3]: 30.9%
- % T/C on day 20 [1, 3]: 26.3%
- % T/C on day 23 [1, 3]: 27.4%
- % T/C on day 27 [1, 3]: 35.6%
- % T/C on day 29 [1, 3]: 48.2%
- % T/C on day 31 [1, 3]: 56.8%
- % T/C on day 7 [1, 4]: 102.1%
- % T/C on day 10 [1, 4]: 49.9%
- % T/C on day 13 [1, 4]: 37.1%
- % T/C on day 16 [1, 4]: 34.1%
- % T/C on day 20 [1, 4]: 30.9%
- % T/C on day 23 [1, 4]: 31.4%
- % T/C on day 27 [1, 4]: 42.6%
- % T/C on day 29 [1, 4]: 57.8%
- % T/C on day 31 [1, 4]: 60.3%
- % Inhibition G4 ([1]; day 7): −2.1%
- % Inhibition G4 ([1]; day 10): 50.1%
- % Inhibition G4 ([1]; day 13): 62.9%
- % Inhibition G4 ([1]; day 16): 65.9%
- % Inhibition G4 ([1]; day 20): 69.1%
- % Inhibition G4 ([1]; day 23): 68.6%
- % Inhibition G4 ([1]; day 27): 57.4%
- % Inhibition G4 ([1]; day 29): 42.2%
- % Inhibition G4 ([1]; day 31): 39.7%
- % Inhibition G3 ([1]; day 7): 1.8%
- % Inhibition G3 ([1]; day 10): 58.8%
- % Inhibition G3 ([1]; day 13): 69.5%
- % Inhibition G3 ([1]; day 16): 69.1%
- % Inhibition G3 ([1]; day 20): 73.7%
- % Inhibition G3 ([1]; day 23): 72.6%
- % Inhibition G3 ([1]; day 27): 64.4%
- % Inhibition G3 ([1]; day 29): 51.8%
- % Inhibition G3 ([1]; day 31): 43.2%
- antitumor activity as single agent (monotherapy) [1]: meeting the NCI criteria for activity
- effect on body weight / toxicity [5]: did not cause a significant decline in mean body weight
- effect on body weight / toxicity [6]: did not cause a significant decline in mean body weight

Compound: CC[C@H](C)[C@H]1NC(=O)[C@@H](NC(=O)[C@@H](CC(C)C)N(C)C(=O)[C@@H]2CCCN2C(=O)C(C)=O)[C@@H](C)OC(=O)[C@H](Cc2ccc(OC)cc2)N(C)C(=O)[C@@H]2CCCN2C(=O)[C@H](CC(C)C)NC(=O)[C@@H](C)C(=O)[C@H](C(C)C)OC(=O)C[C@@H]1O [aplidine, dehydrodidemnin B] (Pyruvoyl-P[dNMeL]T[X1]LP[NMeY](Me); ester 3-C)
- % T/C on day 7 [1, 7]: 101.2%
- % T/C on day 10 [1, 7]: 95.5%
- % T/C on day 13 [1, 7]: 73.2%
- % T/C on day 16 [1, 7]: 77.4%
- % T/C on day 20 [1, 7]: 88.5%
- % T/C on day 23 [1, 7]: 84.3%
- % T/C on day 27 [1, 7]: 86.4%
- % T/C on day 29 [1, 7]: 96.9%
- % T/C on day 31 [1, 7]: 96.0%
- % Inhibition G2 ([1]; day 7): −1.2%
- % Inhibition G2 ([1]; day 10): 4.5%
- % Inhibition G2 ([1]; day 13): 26.8%
- % Inhibition G2 ([1]; day 16): 22.6%
- % Inhibition G2 ([1]; day 20): 11.5%
- % Inhibition G2 ([1]; day 23): 15.7%
- % Inhibition G2 ([1]; day 27): 13.6%
- % Inhibition G2 ([1]; day 29): 3.1%
- % Inhibition G2 ([1]; day 31): 4.0%
- antitumor activity as single agent (monotherapy) [1]: inactive
- % T/C on day 19 [2, 7]: 95.9%
- % T/C on day 22 [2, 7]: 97.0%
- % T/C on day 26 [2, 7]: 66.7%
- % T/C on day 30 [2, 7]: 76.9%
- % T/C on day 33 [2, 7]: 91.0%
- % Inhibition G2 ([2]; day 19): 4.1%
- % Inhibition G2 ([2]; day 22): 3.0%
- % Inhibition G2 ([2]; day 26): 33.3%
- % Inhibition G2 ([2]; day 30): 23.1%
- % Inhibition G2 ([2]; day 33): 9.0%
- antitumor activity as single agent (monotherapy) [2]: inactive
- effect on body weight / toxicity (A498 study, Example 2 (sunitinib)): did not cause a significant decline in mean body weight
- effect on body weight / toxicity (CAKI-1 study, Example 1 (sorafenib)): did not cause a significant decline in mean body weight
- effect on body weight / toxicity (CAKI-1 study, Example 2 (sunitinib)): did not cause a significant decline in mean body weight
- effect on body weight / toxicity [5]: did not cause a significant decline in mean body weight
- effect on body weight / toxicity (HepG2 study, Example 6 (sorafenib)): did not cause a significant decline in mean body weight
- effect on body weight / toxicity (LOX-IMVI study, Example 7 (sorafenib)): did not cause a significant decline in mean body weight
- effect on body weight / toxicity (MRI-H-121 study, Example 2 (sunitinib)): did not cause a significant decline in mean body weight
- effect on body weight / toxicity [6]: did not cause a significant decline in mean body weight

Compound: CNC(=O)c1cc(Oc2ccc(NC(=O)Nc3ccc(Cl)c(C(F)(F)F)c3)cc2)ccn1 [sorafenib]
- % T/C on day 19 ([2]; G3: sorafenib 60 mg/kg/day PO): 88.8%
- % T/C on day 22 ([2]; G3: sorafenib 60 mg/kg/day PO): 78.7%
- % T/C on day 26 ([2]; G3: sorafenib 60 mg/kg/day PO): 60.1%
- % T/C on day 30 ([2]; G3: sorafenib 60 mg/kg/day PO): 61.8%
- % T/C on day 33 ([2]; G3: sorafenib 60 mg/kg/day PO): 66.2%
- % T/C on day 19 ([2]; G4: sorafenib 30 mg/kg/day PO): 101.4%
- % T/C on day 22 ([2]; G4: sorafenib 30 mg/kg/day PO): 123.5%
- % T/C on day 26 ([2]; G4: sorafenib 30 mg/kg/day PO): 91.3%
- % T/C on day 30 ([2]; G4: sorafenib 30 mg/kg/day PO): 100.9%
- antitumor activity as single agent (monotherapy) [2]: inactive
- % Inhibition G4 ([2]; day 22): −23.5%
- % Inhibition G4 ([2]; day 26): 8.7%
- % Inhibition G4 ([2]; day 30): −0.9%
- % Inhibition G4 ([2]; day 33): 9.6%
- % Inhibition G3 ([2]; day 19): 11.2%
- % Inhibition G3 ([2]; day 26): 39.9%
- % Inhibition G3 ([2]; day 30): 38.2%
- % Inhibition G3 ([2]; day 33): 33.8%
- effect on body weight / toxicity (mouse, in vivo): did not cause a significant decline in mean body weight
